This note sets out measurements from patent US9155317B2, “Antifungal compositions” (DSM IP ASSETS B.V., priority 2011, dated 2015).

Assay [1] relates to Fusarium proliferatum. The assay is described as follows: Treatment of wounded, inoculated bananas (mould growth). The class given is in vivo. To be noted: 20° C. Here is the method:
Four organic, unripe (green) bananas were used per treatment. The peel of each banana was wounded thrice using a cork borer according to the method described by de Lapeyre de Bellaire and Dubois (1987). Subsequently, each wound was inoculated with 15 μl of a Fusarium proliferatum suspension containing 1×10^5 of spores/ml. […] In addition, the antifungal compositions comprised 1.00% (w/w) methylhydroxyethylcellulose (MHEC), 0.40% (w/w) xanthan gum, 0.20% (w/w) anti-foaming agent, 0.30% (w/w) citric acid, 0.39% (w/w) lactic acid and 0.11% (w/w) potassium sorbate. […] The treated, unripe bananas were incubated in a closed box in the dark at 20° C. and a relative air humidity of 95%, which was obtained in the presence of a saturated Na2HPO4 aqueous solution. During the first 20 days of incubation, a ripe (yellow) banana was included in the closed box to elevate the ethylene gas level and thus induce ripening of the treated, unripe bananas.
(§1) The expected antifungal activity (E in %) of the combined antifungal composition comprising both active ingredients was calculated according to the Colby equation (Colby, 1967): E=X+Y−[(X·Y)/100] wherein X and Y are the observed antifungal activities (in %) of the individual active ingredients X and Y, respectively. If the observed antifungal activity (0 in %) of the combination exceeds the expected antifungal activity (E in %) of the combination and the synergy factor O/E is thus >1.0, the combined application of the active ingredients leads to a synergistic antifungal effect.
The degree of mould growth on the banana wounds was assessed according to the two methods described in Example 3.

A further assay relates to Penicillium italicum. The assay is described as follows: Treatment of wounded, inoculated mandarins (mould growth). The class given is in vivo. The conditions noted are these: 20° C. The procedure: Ten fresh, organic mandarins were used per treatment. The peel of each mandarin was wounded once using a cork borer according to the method described by de Lapeyre de Bellaire and Dubois (1987). Subsequently, each wound was inoculated with 10 μl of a Penicillium italicum suspension containing 1×10^4 of spores/ml.
as §1, with “The treated mandarins were incubated in a closed box in the dark at 20° C. and assessed on mould growth after 16, 19, 22 and 26 days of incubation. […] The” for “The”, “(O” for “(0”

The subject of assay [2] is Botrytis cinerea. The assay is described as follows: In vitro antifungal activity, 96-well microtiter plates. To be noted: 5 days at 25° C., alone or combined with natamycin. The class given is cell-based. Here is the method:
The following compositions were tested:
(§2) Subsequently, 100 μl of a Botrytis cinerea suspension prepared in PCB medium was used to inoculated each well with 2.5×10^3 spores/ml.
(§3) After incubation of the microtiter plates for 5 days at 25° C., the in vitro antifungal activity (%) of the individual active ingredients was assessed by calculating the reduction in mould growth observed in the presence of the active ingredient in comparison to the mould growth observed in the absence of the active ingredient. The expected antifungal activity (E in %) of the active ingredient combination was calculated according to the Colby equation (Colby, 1967): E=X+Y−[(X·Y)/100] wherein X and Y are the observed antifungal activities (in %) of the individual active ingredients X and Y, respectively. If the observed antifungal activity (O in %) of the combination exceeds the expected antifungal activity (E in %) of the combination and the resulting synergy factor O/E is thus >1.0, the combined application of the active ingredients leads to a synergistic antifungal effect.

In assay [3] the test system is Fusarium proliferatum. Described as above. The class given is cell-based. The conditions noted are these: 5 days at 25° C. Here is the method:
as §2, §3
The experiment was conducted as described in Example 11, except for the fact that the following compositions were tested:
Furthermore, Fusarium proliferatum was used for inoculation.

Assay [4] has as its system Botrytis cinerea. The assay is described as follows: Treatment of wounded, inoculated strawberries (mould growth). The format is in vivo. To be noted: 20° C., 250 ppm natamycin, 500 ppm pyrimethanil or both. Here is the method:
Twelve fresh, organic strawberries were used per treatment. Each strawberry was wounded with a 0.5 mm long cut and each wound was inoculated with 10 μl of a Botrytis cinerea suspension containing 1×10^5 of spores/ml. […] The antifungal composition also comprised 1.00% (w/w) methylhydroxyethylcellulose (MHEC), 0.40% (w/w) xanthan gum, 0.20% (w/w) anti-foaming agent, 0.30% (w/w) citric acid, 0.39% (w/w) lactic acid and 0.11% (w/w) potassium sorbate. A composition without natamycin or pyrimethanil was used as control.
as §1, with “The treated strawberries were incubated for three days in a closed box in the dark at 20° C. and assessed daily on mould growth. The antifungal activity (in %) of the individual active ingredients was determined by calculating the reduction in mould growth observed on the strawberries treated with the antifungal composition in comparison to the mould growth on the strawberries treated with the control composition. The” for “The”, “(O” for “(0”

Setting [5] is: 250 ppm natamycin, 500 ppm cyprodinil or both, 21 days.
Setting [6] is: 500 ppm natamycin, 1000 ppm cyprodinil or both, 27 days.
Where [7] appears, read: natamycin 1.25 ppm, cyprodinil 10 ppm, pyrimethanil 17.5 ppm.
The mark [8] stands for this setting: natamycin […], cyprodinil 20 ppm, pyrimethanil 30 ppm.
[9] abbreviates: 250 ppm natamycin, 500 ppm pyrimethanil or both, 23 days.
The mark [10] stands for this setting: 250 ppm natamycin, 500 ppm pyrimethanil or both, 29 days.
Where [11] appears, read: 500 ppm natamycin, 1000 ppm pyrimethanil or both, 22 days.
The mark [12] stands for this setting: 500 ppm natamycin, 1000 ppm pyrimethanil or both, 26 days.

With `Cc1cc(C2CC2)nc(Nc2ccccc2)n1` [Cyprodinil, cyprodinil], the “Observed antifungal activity O (%)” value in the assay with Fusarium proliferatum [1] (50 ppm natamycin, 250 ppm cyprodinil or both, 23 days) came to 0%; with Fusarium proliferatum [1] (50 ppm natamycin, 250 ppm cyprodinil or both, 29 days) it was 0%; in the assay on Fusarium proliferatum [1] (50 ppm natamycin, 250 ppm cyprodinil or both, 32 days), 0%; in the assay with Fusarium proliferatum [1] (50 ppm natamycin, 250 ppm cyprodinil or both, 36 days), 0%; in the assay on Fusarium proliferatum [1] (setting [5]), 35%; in the assay with Fusarium proliferatum [1] (250 ppm natamycin, 500 ppm cyprodinil or both, 32 days) it was 3%. Moreover, the “Observed antifungal activity O (%)” value came out at 0% in the assay with Fusarium proliferatum [1] (250 ppm natamycin, 500 ppm cyprodinil or both, 34 days); 18% with Fusarium proliferatum [1] (setting [6]); 0% in the assay on Fusarium proliferatum [1] (500 ppm natamycin, 1000 ppm cyprodinil or both, 39 days); 60% in the assay on Penicillium italicum (250 ppm natamycin, 500 ppm cyprodinil or both, 16 days); 38% in the assay on Penicillium italicum (250 ppm natamycin, 500 ppm cyprodinil or both, 19 days); 20% in the assay with Penicillium italicum (250 ppm natamycin, 500 ppm cyprodinil or both, 22 days). The “Observed antifungal activity O (%)” value is 13% in the assay with Penicillium italicum (250 ppm natamycin, 500 ppm cyprodinil or both, 26 days); 0% in the assay on Botrytis cinerea [2] (setting [7]); 0% with Botrytis cinerea [2] (setting [8]); 0% in the assay on Fusarium proliferatum [3] (natamycin 1.25 ppm, cyprodinil 125 ppm or both). Besides, the “Number of moulded wounds/total number of 12 wounds” value is listed as 12/12 in the assay on Fusarium proliferatum [1] (250 ppm natamycin, 500 ppm cyprodinil or both, 18 days); 12 in the assay with Fusarium proliferatum [1] (250 ppm natamycin, 500 ppm cyprodinil or both, 18 days, listed as cyprodinil); 12/12 in the assay on Fusarium proliferatum [1] (setting [5]); 12 in the assay on Fusarium proliferatum [1] (250 ppm natamycin, 500 ppm cyprodinil or both, 21 days, listed as cyprodinil); 12/12 in the assay with Fusarium proliferatum [1] (500 ppm natamycin, 1000 ppm cyprodinil or both, 23 days); 12 in the assay with Fusarium proliferatum [1] (500 ppm natamycin, 1000 ppm cyprodinil or both, 23 days, listed as cyprodinil). Besides, the “Number of moulded wounds/total number of 12 wounds” value was 12/12 in the assay on Fusarium proliferatum [1] (setting [6]) and 12 with Fusarium proliferatum [1] (500 ppm natamycin, 1000 ppm cyprodinil or both, 27 days, listed as cyprodinil).

For `C[C@@H]1C/C=C/C=C/C=C/C=C/[C@H](O[C@@H]2O[C@H](C)[C@@H](O)[C@H](N)[C@@H]2O)C[C@@H]2O[C@](O)(C[C@@H](O)C[C@H]3O[C@@H]3/C=C/C(=O)O1)C[C@H](O)[C@H]2C(=O)O` [Natamycin, natamycin], the “Observed antifungal activity O (%)” value in the assay on Fusarium proliferatum [1] (setting [9]) was 19%; in the assay on Fusarium proliferatum [1] (setting [10]) it was 9%; in the assay on Botrytis cinerea [4] (1 day), 25%; in the assay on Botrytis cinerea [4] (2 days), 31%; with Botrytis cinerea [4] (3 days) it was 24%; in the assay on Penicillium italicum (setting [11]), 37%. Further, the “Observed antifungal activity O (%)” value with Penicillium italicum (setting [12]) amounted to 30%.

As to `Cc1cc(C)nc(Nc2ccccc2)n1` [Pyrimethanil, pyrimethanil], the “Observed antifungal activity O (%)” value in the assay on Fusarium proliferatum [1] (setting [9]) is given as 0%; with Fusarium proliferatum [1] (setting [10]), 0%; with Fusarium proliferatum [1] (250 ppm natamycin, 500 ppm pyrimethanil or both, 32 days), 0%; in the assay on Fusarium proliferatum [1] (250 ppm natamycin, 500 ppm pyrimethanil or both, 34 days), 0%; in the assay with Botrytis cinerea [4] (1 day), 0%; in the assay with Botrytis cinerea [4] (2 days), 0%. For the same compound, the “Observed antifungal activity O (%)” value was found to be 0% in the assay on Botrytis cinerea [4] (3 days); 84% in the assay on Penicillium italicum (250 ppm natamycin, 500 ppm pyrimethanil or both, 19 days); 74% in the assay on Penicillium italicum (250 ppm natamycin, 500 ppm pyrimethanil or both, 22 days); 65% with Penicillium italicum (250 ppm natamycin, 500 ppm pyrimethanil or both, 26 days); 82% with Penicillium italicum (setting [11]); 79% in the assay on Penicillium italicum (setting [12]). For the same compound, the “Observed antifungal activity O (%)” value in the assay on Botrytis cinerea [2] (setting [7]) was found to be 50%; with Botrytis cinerea [2] (setting [8]) it was 50%; in the assay with Fusarium proliferatum [3] (natamycin 2.5 ppm, pyrimethanil 275 ppm or both), 0%.
